These results are taken from US8765755B2, “N-containing heterocyclic compounds” (YM Biosciences Australia Pty Ltd, priority 2007, dated 2014).

Some results are limits rather than exact numbers.

The test system of one assay is BafT_J2. Briefly: Cellular screening, BaF3 TEL:JAK2 cells (Alamar Blue). In kind it is cell-based. The note with it: Mus musculus, 40 hr incubation. As to the method: (§1) For screening purposes, compounds were diluted in 96 well plates at a concentration of 20 μM. Plates were warmed at 37° C. for 30 minutes before the assay was performed.
(§2) The coding region encompassing nucleotides 1-487 of TEL was amplified by PCR using the oligonucleotides 5TEL (5′-GGAGGATCCTGATCTCTCTCGCTGTGAGAC-3′) [SEQ ID NO 14] and 3TEL (5′-AGGC GTCGACTTCTTCTTCATGGTTCTG-3′) [SEQ ID NO 15] and U937 mRNA as a template. A BamHI restriction site was incorporated into the 5TEL primer, and a Sal I restriction site was incorporated into the 3TEL primer. The regions encompassing the kinase domain of JAK2 (nucleotides 2994-3914; JAK2F 5′-ACGC GTCGACGGTGCCTTTGAAGACCGGGAT-3′ [SEQ ID NO 16]; JAK2R 5′-ATAGTTTAGCGGCCGCTCAGAATGAAGGTCATTT-3′) [SEQ ID NO 17] and JAK3 (nucleotides 2520-3469; JAK3F 5′-GAAGTCGACTATGCCTGCCAAGACCCCACGATCTT-3′) [SEQ ID NO 18] were generated by PCR using Taq DNA polymerase (Gibco/BRL) and U937 mRNA as a template. A Sal I restriction site was incorporated into the forward primer of JAK2 and JAK3, a Not I site was incorporated into the JAK2 reverse primer and a Xba I site was added to the reverse primer of JAK3.
A TEL/Jak2 fusion was generated by digestion of the TELPCR product with BamH I/Sal I restriction enzymes, digestion of the JAK2 PCR product with Sal I/Not I restriction enzymes, followed by ligation and subcloning of the ligation product into the mammalian expression Vector pTRE 2 (Clontech), which was prepared by digestion with BamH I-Not I restriction enzymes, to give the TEL/Jak2 fusion plasmid pTELJAK2.
(§3) The growth factor dependant myelomonocytic cell line BaF3 bearing the pTET-off plasmid (Clontech) was transfected with either pTELJAK2 or pTELJAK3, and the transfected cells were selected for growth-factor independent cell growth. The BaF3 wild-type cells were cultured in DMEM containing 10% FCS, 10% WEHI 3B conditioned medium. The BaF3 TELJAK cells ([…]) were cultured in DMEM 10% Tet-System Approved FBS (without WEHI 3B conditioned medium).
(§4) Cell suspensions were prepared by harvesting cells from culture. (the cells used in this test were in late log phase growth with high viability.) Cells were diluted in the appropriate growth medium, as described above, to 1.1× final concentration (from 50,000 cell/mL to 200,000 cell/mL, depending on cell line).
(§5) Compounds to be tested were added (10 μL, 10× final concentration) to a flat bottomed 96-well plate. The cellular suspension (90 μL per well) was then added, and the plate incubated for 40 hr at 37° C., 5% CO2. Alamar Blue 10 μL per well was added and the plates returned to the incubator for a further 4-6 hours. The plates were then read at 544 nm.
(Resazurin is reduced to fluorescent resorufin, in cell work by metabolically active cells.)

Another assay addresses T1, human JAK2 (Homo sapiens, UniProt O60674).
T1 construct: The kinase domain of human JAK2 was amplified; GST (N); made in house; host or cells: Sf9 (Spodoptera frugiperda) insect cells, baculovirus
Briefly: JAK2 kinase enzyme assay (Alphascreen). The assay is classed as biochemical. The following applies: 80 or 625 um ATP. As to the method: (§6) For screening purposes, compounds (in 100% DMSO) were warmed at 37 degrees for at least 20 minutes before use. A […] stock was initially made in assay buffer, where the final concentration of DMSO was 0.3%. The stocks were then diluted in 384 well Optiplates (Packard) where the final concentration of the compound was 5 μM.
The kinase domain of human JAK2 was amplified from U937mRNA using the polymerase chain reaction with the following primers: […]
The JAK2 PCR products were cloned into the pDest20 destination vector (Gibco). The JAK2 plasmid was then transformed into competent DH10Bac cells (Gibco), and the recombinant baculovirus was prepared via Sf9 insect cell transfection.
(§7) Baculovirus preparations from each of the JAK family members were infected into one litre of Sf9 (Spodoptera frugiperda) cells (Invitrogen) grown in SF900II serum free medium (Invitrogen) to a cell density of approximately 2×10^6 cells/ml. Cells were infected with virus at a cell culture to virus stock ratio of 20:1. Cells were harvested and lysed 48 hours post infection. The GST-tagged JAK kinase domains were purified by affinity chromatography on a GSH agarose column (Scientifix).
(§8) Kinase assays were performed in 384 well Optiplates (Packard) using an Alphascreen Protein Tyrosine KinaseP100 detection kit The compounds were pre-incubated with affinity purified PTK domain in the presence of phosphotyrosine assay buffer (10 mM HEPES, pH 7.5, 100 mM MgCl2, 25 mM NaCl, 200 mM sodium vanadate and 0.1% Tween 20) for 20 minutes. The compounds were then incubated with substrate in the presence of either 80 or 625 um ATP for 60 or 90 minutes. The substrate used was either susbtrate-1 with the sequence biotin-EGPWLEEEEEAYGWMDF-NH2 [SEQ. ID. NO. 13] (final concentration 111 μM) or susbtrate-2 substrate with the sequence biotin-EQEDEPEGDYFEWLEPE (final concentration 133 μM). Alphascreen phosphotyrosine acceptor beads followed by streptavidin donor beads at a concentration of 1/100 in stop buffer were added to each well under subdued light and incubated for 2-3 hours. The Alphascreen plates were read on a Packard Fusion Alpha instrument.

The next assay relates to CTLL2. Put plainly: Cellular screening, CTLL2 cells (Alamar Blue). The note with it: Mus musculus, CTLL-2, 40 hr incubation. In kind it is cell-based. As to the method:
as §1, §4, §5

The target in the next assay is T2, human JAK3 (Homo sapiens, UniProt P52333).
T2 construct: The kinase domain of human JAK3 was amplified; GST (N); made in house; host or cells: Sf9 (Spodoptera frugiperda) insect cells, baculovirus
Briefly: JAK3 kinase enzyme assay (Alphascreen). In kind it is biochemical. The following applies: 80 or 625 um ATP. As to the method:
as §6
The kinase domain of human JAK3 was amplified from U937mRNA using the polymerase chain reaction with the following primers: […]
The JAK3 PCR products were cloned into the pDest20 destination expression vector (Gibco). The JAK3 plasmid was then transformed into competent DH10Bac cells (Gibco), and the recombinant baculovirus was prepared via Sf9 insect cell transfection.
as §7, §8
(Bead proximity is the source of the signal in Alpha formats.)

The subject of another assay is BAF3wt. Put plainly: Cellular screening, BaF3 wild-type cells (Alamar Blue). In kind it is cell-based. The following applies: Mus musculus, 40 hr incubation. As to the method:
as §1, §3, §4, §5

The test system of another assay is BafT_J3. Put plainly: Cellular screening, BaF3 TEL:JAK3 cells (Alamar Blue). The assay is classed as cell-based. The following applies: Mus musculus, 40 hr incubation. As to the method: as §1, §2
The TEL/Jak3 fusion was prepared by ligation of the JAK3 Sal I/Not I cleaved kinase domain PCR product with the BamH I/Sal I restriction digested TEL product, followed by ligation of the ligation product into the BamH I/Not I digested pTRE2, to give the TEL/Jak3 fusion plasmid pTELJAK3.
as §3, §4, §5

T2 sequence (P52333 822-1111 limits assumed): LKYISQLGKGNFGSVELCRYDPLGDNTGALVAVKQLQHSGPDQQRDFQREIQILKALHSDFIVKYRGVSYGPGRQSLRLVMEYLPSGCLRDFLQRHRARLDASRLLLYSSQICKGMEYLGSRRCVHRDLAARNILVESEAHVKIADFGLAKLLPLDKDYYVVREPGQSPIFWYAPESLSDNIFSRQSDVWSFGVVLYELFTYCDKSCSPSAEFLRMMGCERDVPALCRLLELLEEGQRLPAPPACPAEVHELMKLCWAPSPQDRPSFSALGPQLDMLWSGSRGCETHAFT
T1 sequence (O60674 849-1124 limits assumed): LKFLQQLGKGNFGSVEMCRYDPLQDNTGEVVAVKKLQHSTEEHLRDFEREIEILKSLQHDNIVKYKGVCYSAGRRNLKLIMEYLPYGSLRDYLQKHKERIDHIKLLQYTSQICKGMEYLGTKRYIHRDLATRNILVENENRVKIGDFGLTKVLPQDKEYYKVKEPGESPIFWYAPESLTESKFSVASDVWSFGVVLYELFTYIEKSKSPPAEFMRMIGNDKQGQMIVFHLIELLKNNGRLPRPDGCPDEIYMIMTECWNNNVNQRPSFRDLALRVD

By IC50 is commonly meant the midpoint of a concentration-inhibition curve. A higher IC50 goes with weaker potency. With `Nc1ccc(-c2csc3cnc(Nc4ccc(N5CCOCC5)cc4)nc23)cc1` [Compound 2, 7-(4-aminophenyl)-N-(4-morpholinophenyl)thieno[3,2-d]pyrimidin-2-amine], the IC50 in the assay on BafT_J2 was below 1000 nM; against human JAK2, below 100 nM; in the assay on CTLL2 it was below 1000 nM; on human JAK3, below 100 nM; in the assay with BAF3wt, below 1000 nM; in the assay on BafT_J3 it was below 1000 nM.
As to `C=CC(=O)Nc1ccc(-c2csc3cnc(Nc4ccc(N5CCOCC5)cc4)nc23)cc1` [Compound 3, N-(4-(2-(4-morpholinophenylamino)thieno[3,2-d]pyrimidin-7-yl)phenyl)acrylamide], the IC50 is below 5000 nM with BafT_J2; below 100 nM against human JAK2; below 1000 nM in the assay with CTLL2; below 100 nM at human JAK3; below 5000 nM in the assay with BAF3wt; below 1000 nM in the assay with BafT_J3.
`Nc1cccc(-c2csc3cnc(Nc4ccc(N5CCOCC5)cc4)nc23)c1` [Compound 4, 7-(3-aminophenyl)-N-(4-morpholinophenyl)thieno[3,2-d]pyrimidin-2-amine]: the IC50 in the assay on BafT_J2 was below 1000 nM; at human JAK2 it was below 100 nM; in the assay with CTLL2 it was below 1000 nM; at human JAK3, below 100 nM; in the assay on BAF3wt, below 1000 nM; with BafT_J3, below 1000 nM.
Take `C=CC(=O)Nc1cccc(-c2csc3cnc(Nc4ccc(N5CCOCC5)cc4)nc23)c1` [Compound 5, N-(3-(2-(4-morpholinophenylamino)thieno[3,2-d]pyrimidin-7-yl)phenyl)acrylamide]: the IC50 is below 5000 nM with BafT_J2; below 100 nM at human JAK2; below 1000 nM in the assay with CTLL2; below 100 nM against human JAK3; below 1000 nM with BAF3wt; below 1000 nM in the assay on BafT_J3.
As for `COc1cc(-c2csc3cnc(Nc4ccc(N5CCOCC5)cc4)nc23)ccc1N` [Compound 10, 7-(4-amino-3-methoxyphenyl)-N-(4-morpholinophenyl)thieno[3,2-d]pyrimidin-2-amine], the IC50 in the assay with BafT_J2 was below 1000 nM; against human JAK2, below 100 nM; in the assay on CTLL2, below 1000 nM; at human JAK3, below 100 nM; with BAF3wt, below 1000 nM; with BafT_J3, below 1000 nM.
Consider `CCc1ccccc1-c1csc2cnc(Nc3cccc(N)c3)nc12` [Compound 22, N1-(7-(2-ethylphenyl)thieno[3,2-d]pyrimidin-2-yl)benzene-1,3-diamine], for which the IC50 was below 1000 nM in the assay with BafT_J2; below 100 nM on human JAK2; below 1000 nM with CTLL2; below 100 nM at human JAK3; below 5000 nM with BAF3wt; below 5000 nM in the assay on BafT_J3.
As to `CCc1ccccc1-c1csc2cnc(Nc3ccc(N4CCOCC4)cc3)nc12` [Compound 29, 7-(2-ethylphenyl)-N-(4-morpholinophenyl)thieno[3,2-d]pyrimidin-2-amine], the IC50 in the assay on BafT_J2 is below 1000 nM; on human JAK2, below 100 nM; in the assay with CTLL2, below 1000 nM; on human JAK3, below 100 nM; in the assay with BAF3wt, below 1000 nM; in the assay on BafT_J3 it was below 1000 nM.
Take `CC(=O)Nc1cccc(-c2csc3cnc(Nc4ccc(N5CCOCC5)cc4)nc23)c1` [Compound 30, N-(3-(2-(4-morpholinophenylamino)thieno[3,2-d]pyrimidin-7-yl)phenyl)acetamide]: the IC50 in the assay on BafT_J2 was below 1000 nM; on human JAK2, below 100 nM; in the assay with CTLL2, below 5000 nM; on human JAK3, below 100 nM; in the assay on BAF3wt, below 1000 nM; with BafT_J3, below 1000 nM.
As to `CS(=O)(=O)N(CC#N)c1ccc(-c2csc3cnc(Nc4ccc(N5CCOCC5)cc4)nc23)cc1` [Compound 32, N-(cyanomethyl)-N-(4-(2-(4-morpholinophenylamino)thieno[3,2-d]pyrimidin-7-yl)phenyl)methanesulfonamide], the IC50 was below 1000 nM with BafT_J2; below 100 nM against human JAK2; below 1000 nM with CTLL2; below 100 nM at human JAK3; below 5000 nM in the assay on BAF3wt; below 1000 nM with BafT_J3.
Turning to `Cn1cc(-c2ccc(NS(C)(=O)=O)cc2)c2nc(Nc3ccc(N4CCOCC4)cc3)ncc21` [Compound 35, N-(4-(5-methyl-2-(4-morpholinophenylamino)-5H-pyrrolo[3,2-d]pyrimidin-7-yl)phenyl)methanesulfonamide], the IC50 with BafT_J2 was below 5000 nM; against human JAK2, below 100 nM; with CTLL2, below 5000 nM; at human JAK3, below 1000 nM; in the assay on BAF3wt, below 5000 nM; in the assay on BafT_J3 it was below 20000 nM.
`CC(C)c1ccccc1-c1csc2cnc(Nc3ccc(N4CCOCC4)cc3)nc12` [Compound 37, 7-(2-isopropylphenyl)-N-(4-morpholinophenyl)thieno[3,2-d]pyrimidin-2-amine]: the IC50 in the assay with BafT_J2 is below 1000 nM; against human JAK2, below 100 nM; with CTLL2, below 1000 nM; against human JAK3, below 100 nM; in the assay with BAF3wt, below 1000 nM; with BafT_J3, below 1000 nM.
`Nc1ccc(-c2csc3cnc(Nc4ccc(N5CCOCC5)cc4)nc23)cc1[N+](=O)[O-]` [Compound 44, 7-(4-amino-3-nitrophenyl)-N-(4-morpholinophenyl)thieno[3,2-d]pyrimidin-2-amine]: the IC50 was below 1000 nM in the assay on BafT_J2; below 100 nM against human JAK2; below 5000 nM with CTLL2; below 100 nM against human JAK3; below 5000 nM in the assay with BAF3wt; below 5000 nM in the assay on BafT_J3.
